Experimental data as given in article PMC5578959, “Selective LRRK2 kinase inhibition reduces phosphorylation of endogenous Rab10 and Rab12 in human peripheral mononuclear blood cells” (Scientific Reports, 2017).
Read-outs that look alike come from different tables or passages of the source.

How the values were obtained:
LRRK2-pSer935 = molecular target: T1, LRRK2-pSer935 (Homo sapiens, UniProt Q5S007); experiment: Western Blot, cultured immune stimulated human PBMCs; type: cell-based; conditions: 100 nM, 1hr and 24hrs, n = 10 donors
T1 construct: human primary cells expressing endogenous levels of LRRK2; endogenous in cells; host or cells: human PBMCs from healthy donors
Experimental: PBMC were isolated from fresh blood collected within a maximal time of 4 hours after blood collection. Leucosep tubes (Greiner 227290) was added 15 ml Ficoll (GE Healthcare 17-440-03) and spun 30 s at 1000 × g. Blood was diluted 1:1 using D-PBS 1X (Gibco 14190), transfered to the Leucosep and centrifuged at 800 g for 15 min without brake. The upper layer corresponding to the diluted plasma was removed and the PBMC layer collected using a pipette or by pouring into a clean BD Falcon 50 ml tube. Cells were re-suspended and washed four times with 10 ml of D-PBS 1X (Gibco 14190) followed by centrifugation at 250 g for 10 min with brake at room temperature. The supernatant was discarded and the cells re-suspended in Complete medium equilibrated to 37 °C. The number of dead and living cells were counted on a Nucleocounter and used to calculate percent viability. […]
HEK293 cells were plated at a density of 1 × 10^6 cells/well in 6-well plates pre-coated for 1 hr at 37 °C with poly-L-lysin. […] The proteins were visually detected by infrared imaging using Odyssey CLx (LI-COR, Nebraska, US). Membranes were scanned and band intensities were quantified using the Image Studio version 3.1.4 (LI-COR, Nebraska).

PKD1, PKD2 = experiment: KiNativ profiling in human PBMCs; type: binding; conditions: Lys2
EphA1 = system: T2, EphA1; experiment: KiNativ profiling in human PBMCs; type: binding; conditions: Activation Loop
T2 construct: purchased ActivX Technologies (KiNativ)

ATR = system: T3, ATR; experiment: KiNativ profiling in human PBMCs; type: binding; conditions: ATP
T3 construct: purchased ActivX Technologies (KiNativ)

ITK = system: T4, ITK; experiment: KiNativ profiling in human PBMCs; type: binding; conditions: Activation Loop
T4 construct: purchased ActivX Technologies (KiNativ)

BLK = system: T5, BLK; experiment: KiNativ profiling in human PBMCs; type: binding; conditions: Activation Loop
T5 construct: purchased ActivX Technologies (KiNativ)

MST4 = system: T6, MST4; experiment: KiNativ profiling in human PBMCs; type: binding; conditions: Lys1
T6 construct: purchased ActivX Technologies (KiNativ)

VRK2 = system: T7, VRK2; experiment: KiNativ profiling in human PBMCs; type: binding; conditions: Lys2
T7 construct: purchased ActivX Technologies (KiNativ)

CHED = conditions: Lys2
MAP2K1 = system: T8, MAP2K1; experiment: KiNativ profiling in human PBMCs; type: binding; conditions: Lys2
T8 construct: purchased ActivX Technologies (KiNativ)

PIP4K2B = system: T9, PIP4K2B; experiment: KiNativ profiling in human PBMCs; type: binding; conditions: ATP
T9 construct: purchased ActivX Technologies (KiNativ)

PEK = system: T10, PEK; experiment: KiNativ profiling in human PBMCs; type: binding; conditions: Lys2
T10 construct: purchased ActivX Technologies (KiNativ)

SRPK1 = system: T11, SRPK1; experiment: KiNativ profiling in human PBMCs; type: binding; conditions: Lys2
T11 construct: purchased ActivX Technologies (KiNativ)

PKN2 = system: T12, PKN2; experiment: KiNativ profiling in human PBMCs; type: binding; conditions: Lys2
T12 construct: purchased ActivX Technologies (KiNativ)

CLK3 = system: T13, CLK3; experiment: KiNativ profiling in human PBMCs; type: binding; conditions: ATP Loop
T13 construct: purchased ActivX Technologies (KiNativ)

CDK9 = system: T14, CDK9; experiment: KiNativ profiling in human PBMCs; type: binding; conditions: Lys2
T14 construct: purchased ActivX Technologies (KiNativ)

PDHK1 = system: T15, PDHK1; experiment: KiNativ profiling in human PBMCs; type: binding; conditions: ATP
T15 construct: purchased ActivX Technologies (KiNativ)

T1 sequence (Q5S007 whole entry): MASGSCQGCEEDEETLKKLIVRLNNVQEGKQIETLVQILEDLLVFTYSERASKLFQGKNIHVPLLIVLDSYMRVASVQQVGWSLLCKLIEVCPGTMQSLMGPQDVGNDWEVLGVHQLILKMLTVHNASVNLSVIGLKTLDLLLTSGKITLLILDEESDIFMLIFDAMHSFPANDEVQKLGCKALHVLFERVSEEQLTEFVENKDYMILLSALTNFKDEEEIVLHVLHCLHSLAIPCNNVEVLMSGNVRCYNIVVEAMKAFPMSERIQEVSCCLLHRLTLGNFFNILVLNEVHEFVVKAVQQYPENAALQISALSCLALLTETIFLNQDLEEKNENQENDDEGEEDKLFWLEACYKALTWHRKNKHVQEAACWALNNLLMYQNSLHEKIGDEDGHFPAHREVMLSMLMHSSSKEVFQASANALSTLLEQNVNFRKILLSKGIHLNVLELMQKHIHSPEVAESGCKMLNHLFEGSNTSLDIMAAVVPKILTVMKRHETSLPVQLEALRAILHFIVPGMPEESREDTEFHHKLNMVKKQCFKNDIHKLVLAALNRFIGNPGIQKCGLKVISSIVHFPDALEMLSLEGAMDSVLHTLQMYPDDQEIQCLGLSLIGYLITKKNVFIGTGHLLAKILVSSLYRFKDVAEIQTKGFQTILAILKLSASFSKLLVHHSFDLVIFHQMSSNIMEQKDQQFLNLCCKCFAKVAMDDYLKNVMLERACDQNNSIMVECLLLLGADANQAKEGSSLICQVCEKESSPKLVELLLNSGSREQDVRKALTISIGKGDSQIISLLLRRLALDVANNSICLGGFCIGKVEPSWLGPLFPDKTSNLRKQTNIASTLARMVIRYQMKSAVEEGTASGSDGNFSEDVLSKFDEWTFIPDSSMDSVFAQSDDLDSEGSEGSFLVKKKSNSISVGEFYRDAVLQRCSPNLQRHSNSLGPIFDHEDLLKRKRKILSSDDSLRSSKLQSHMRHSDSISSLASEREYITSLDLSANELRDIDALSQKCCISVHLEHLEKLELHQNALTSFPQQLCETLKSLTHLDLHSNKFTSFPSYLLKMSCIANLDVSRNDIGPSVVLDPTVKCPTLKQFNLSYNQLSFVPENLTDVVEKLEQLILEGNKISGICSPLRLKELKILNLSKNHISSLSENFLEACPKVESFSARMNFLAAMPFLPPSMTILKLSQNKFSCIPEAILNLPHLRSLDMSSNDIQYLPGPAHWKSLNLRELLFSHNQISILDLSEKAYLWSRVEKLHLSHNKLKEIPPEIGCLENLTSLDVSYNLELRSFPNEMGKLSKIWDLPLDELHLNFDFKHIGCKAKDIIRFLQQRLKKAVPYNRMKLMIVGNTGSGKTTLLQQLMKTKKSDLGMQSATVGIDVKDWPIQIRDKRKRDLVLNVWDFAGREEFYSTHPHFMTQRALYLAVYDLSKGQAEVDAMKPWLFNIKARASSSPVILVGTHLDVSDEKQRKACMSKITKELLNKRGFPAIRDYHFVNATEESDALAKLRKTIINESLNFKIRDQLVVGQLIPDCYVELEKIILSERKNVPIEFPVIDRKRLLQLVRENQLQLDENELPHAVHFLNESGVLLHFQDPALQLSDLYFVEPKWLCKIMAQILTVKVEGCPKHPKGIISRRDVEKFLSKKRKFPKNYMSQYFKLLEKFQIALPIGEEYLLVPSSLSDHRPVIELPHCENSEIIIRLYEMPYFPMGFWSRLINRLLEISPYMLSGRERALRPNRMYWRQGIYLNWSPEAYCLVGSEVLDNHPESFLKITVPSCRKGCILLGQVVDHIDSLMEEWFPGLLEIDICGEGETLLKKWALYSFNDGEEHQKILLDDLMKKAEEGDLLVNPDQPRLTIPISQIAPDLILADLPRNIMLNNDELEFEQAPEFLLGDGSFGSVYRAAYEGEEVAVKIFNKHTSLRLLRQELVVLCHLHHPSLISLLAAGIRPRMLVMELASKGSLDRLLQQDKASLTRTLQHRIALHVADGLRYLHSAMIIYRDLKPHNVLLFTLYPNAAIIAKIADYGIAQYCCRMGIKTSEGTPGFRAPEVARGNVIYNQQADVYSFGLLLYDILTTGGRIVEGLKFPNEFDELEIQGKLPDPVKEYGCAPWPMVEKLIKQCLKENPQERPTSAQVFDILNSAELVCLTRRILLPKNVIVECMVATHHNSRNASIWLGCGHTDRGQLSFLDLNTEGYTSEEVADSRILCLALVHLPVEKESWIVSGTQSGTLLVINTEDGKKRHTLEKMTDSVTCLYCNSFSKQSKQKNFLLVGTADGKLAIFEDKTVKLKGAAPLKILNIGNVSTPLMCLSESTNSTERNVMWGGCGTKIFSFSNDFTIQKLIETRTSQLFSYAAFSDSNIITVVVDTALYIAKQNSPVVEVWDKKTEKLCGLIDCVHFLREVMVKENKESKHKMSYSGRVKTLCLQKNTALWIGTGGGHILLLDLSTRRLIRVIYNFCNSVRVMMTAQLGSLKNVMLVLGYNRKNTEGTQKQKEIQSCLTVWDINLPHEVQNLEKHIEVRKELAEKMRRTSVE

Question: `Cc1cccc(-c2cc(Nc3ccn(C)n3)nc3[nH]cc(C#N)c23)c1` [Lu AF58786] was tested. Which “LRRK2 kinase inhibition (LRRK2-pSer935/total LRRK2)” value (LRRK2-pSer935) did it give?
Answer: confirmed

Question: Which results are given for `Cn1cc(-c2c[nH]c3ncnc(N4CCOCC4)c23)cc1C#N` [PFE-360]?
Answer: % Inhibition (PKD1, PKD2; 0.1µM): 13.1%; % Inhibition (PKD1, PKD2; 1µM): -5.9%; LRRK2 kinase inhibition (LRRK2-pSer935/total LRRK2) (LRRK2-pSer935): confirmed; % Inhibition (EphA1; 0.1µM): -12.8%; % Inhibition (EphA1; 1µM): -26.9%; % Inhibition (ATR; 0.1µM): -25.8%; % Inhibition (ATR; 1µM): 10.7%; % Inhibition (ITK; 0.1µM): 3.5%; % Inhibition (ITK; 1µM): -4.7%; % Inhibition (BLK; 0.1µM): 12.4%; % Inhibition (BLK; 1µM): -11.6%; % Inhibition (MST4; 0.1µM): -26.3%; % Inhibition (MST4; 1µM): -30%; % Inhibition (VRK2; 0.1µM): -2.9%; % Inhibition (VRK2; 1µM): 8.4%; % Inhibition (CHED; 0.1µM): 4.9%; % Inhibition (CHED; 1µM): -1.5%; % Inhibition (MAP2K1; 0.1µM): -25.9%; % Inhibition (MAP2K1; 1µM): 6.5%; % Inhibition (PIP4K2B; 0.1µM): 6.9%; % Inhibition (PIP4K2B; 1µM): 22.6%; % Inhibition (PEK; 0.1µM): 10.6%; % Inhibition (PEK; 1µM): 17.3%; % Inhibition (SRPK1; 0.1µM): 12.7%; % Inhibition (SRPK1; 1µM): -13.2%; % Inhibition (PKN2; 0.1µM): -3%; % Inhibition (PKN2; 1µM): -20%; % Inhibition (CLK3; 0.1µM): 3.8%; % Inhibition (CLK3; 1µM): -6.8%; % Inhibition (CDK9; 0.1µM): -8.9%; % Inhibition (CDK9; 1µM): -4.4%; % Inhibition (PDHK1; 0.1µM): -3.7%; % Inhibition (PDHK1; 1µM): -3%
